The term IC10 denotes the point of the concentration-response curve where the effect stands at 10%.

Experimental findings from ChEMBL document CHEMBL1147167, “New 1,3-dioxolane and 1,3-dioxane derivatives as effective modulators to overcome multidrug resistance” (2007) are described below.

The test system of the first test is Caco-2. Kind of test: Antiproliferative activity against human Caco-2 cells assessed as cell viability by MTT assay after 48 hrs. The class given is functional.
Details: not given
(In general: Tetrazolium assays rely on reduction of a dye to a coloured formazan, in cell work by metabolically active cells.)
Turning to `CN1CCN(CCCOc2ccc(C3O[C@H](c4ccccc4)[C@@H](c4ccccc4)O3)cc2)CC1` (relative stereo), the IC10 was 19.5 µM.

Consider `c1ccc(C(CCCCN2CCN(CCCOc3ccc(C4O[C@@H](c5ccccc5)[C@H](c5ccccc5)O4)cc3)CC2)c2ccccc2)cc1` (relative stereo), for which the IC10 is 15.9 µM.

The same test, now with this note: Homo sapiens, Caco-2, 48 h; read-out: IC10.
Turning to `c1ccc(C(CCCCN2CCN(CCCCOc3ccc(C4OC(c5ccccc5)C(c5ccccc5)O4)cc3)CC2)c2ccccc2)cc1` (configuration not stated), the IC10 was 17.5 µM.

For `CN1CCN(CCCCC2COC(c3ccccc3)(c3ccccc3)O2)CC1` (configuration not stated), the IC10 was determined as 10.5 µM.

Turning to `c1ccc(C2OC(c3ccc(OCCCN4CCCCC4)cc3)OC2c2ccccc2)cc1` (configuration not stated), the IC10 was found to be 15.3 µM.

On to `c1ccc(C(CCCCN2CCN(CCCOc3ccc(C4O[C@@H](c5ccccc5)[C@H](c5ccccc5)O4)cc3)CC2)c2ccccc2)cc1`, for which the IC10 came to 17.1 µM.

Turning to `CN1CCN(CCCOc2ccc(C3O[C@H](c4ccccc4)[C@H](c4ccccc4)O3)cc2)CC1` (some centres not stated), the concentration for an effect of 10% (IC10) was found to be 21.1 µM.

In the case of `CN1CCN(CCCCOc2ccc(C3OC(c4ccccc4)C(c4ccccc4)O3)cc2)CC1` (configuration not stated), the IC10 turned out to be 13.8 µM.

For `CN1CCN(CCCOc2ccc(C3OC(c4ccccc4Cl)C(c4ccccc4Cl)O3)cc2)CC1` (configuration not stated), the IC10 was determined as 19.5 µM.

In the case of `CN1CCN(CCCOc2ccc(C3O[C@@H](c4ccccc4)[C@H](c4ccccc4)O3)cc2)CC1`, the IC10 amounted to 19.9 µM.

Regarding `CN1CCN(CCOc2ccc(C3OC(c4ccccc4)C(c4ccccc4)O3)cc2)CC1` (configuration not stated), the IC10 amounted to 8.6 µM.

For the compound `c1ccc(C(CCCCN2CCN(CCCOc3ccc(C4O[C@H](c5ccccc5)[C@H](c5ccccc5)O4)cc3)CC2)c2ccccc2)cc1` (some centres not stated), the IC10 was found to be 16.8 µM.

With `c1ccc(C(CN2CCN(CCCOc3ccc(C4OC(c5ccccc5)C(c5ccccc5)O4)cc3)CC2)c2ccccc2)cc1` (configuration not stated), the IC10 was found to be 6.1 µM.

Take `CC1OC(c2ccccc2)(c2ccccc2)OCC1CN1CCN(CCCCC(c2ccccc2)c2ccccc2)CC1` (configuration not stated): the IC10 was determined as 6.1 µM.

Consider `c1ccc(C(CCCN2CCN(CCCOc3ccc(C4OC(c5ccccc5)C(c5ccccc5)O4)cc3)CC2)c2ccccc2)cc1` (configuration not stated), for which the IC10 amounted to 12.4 µM.

With `CN1CCN(CCCN2c3ccccc3Sc3ccc(C(F)(F)F)cc32)CC1` [TRIFLUOPERAZINE], the IC10 was 11.3 µM.

Consider `CN1CCN(CCCOc2ccc(C3O[C@H](c4ccccc4)[C@@H](c4ccccc4)O3)cc2)CC1`, for which the IC10 came to 20.4 µM.

With `c1ccc(C(CCCCN2CCN(CCCOc3ccc(C4O[C@H](c5ccccc5)[C@@H](c5ccccc5)O4)cc3)CC2)c2ccccc2)cc1`, the concentration for an effect of 10% (IC10) came out at 16.2 µM.

`c1ccc(C(CCCCN2CCN(CCOc3ccc(C4OC(c5ccccc5)C(c5ccccc5)O4)cc3)CC2)c2ccccc2)cc1` (configuration not stated): the IC10 was determined as 14.7 µM.

Consider `c1ccc(C2OC(c3ccc(OCCCN4CCN(C(c5ccccc5)c5ccccc5)CC4)cc3)OC2c2ccccc2)cc1` (configuration not stated), for which the IC10 was 16.4 µM.

For the compound `c1ccc(C2(c3ccccc3)OCC(CCCCN3CCCCC3)O2)cc1` (configuration not stated), the IC10 came to 18.1 µM.

Take `OCCN1CCN(CCCOc2ccc(C3OC(c4ccccc4)C(c4ccccc4)O3)cc2)CC1` (configuration not stated): the IC10 was found to be 76.6 µM.

As to `c1ccc(C(CCCCN2CCN(CCCCC3COC(c4ccccc4)(c4ccccc4)O3)CC2)c2ccccc2)cc1` (configuration not stated), the IC10 worked out at 5.85 µM.

For `CC1OC(c2ccccc2)(c2ccccc2)OCC1CN1CCN(C)CC1` (configuration not stated), the IC10 stood at 9.7 µM.

For `CN1CCN(CCCOc2ccc(C3OC(c4ccc(F)cc4)C(c4ccc(F)cc4)O3)cc2)CC1` (configuration not stated), the IC10 was determined as 18.8 µM.

As for `OCCN1CCN(CCCCC2COC(c3ccccc3)(c3ccccc3)O2)CC1` (configuration not stated), the IC10 is 98.3 µM.

Take `c1ccc(C(CCN2CCN(CCCOc3ccc(C4OC(c5ccccc5)C(c5ccccc5)O4)cc3)CC2)c2ccccc2)cc1` (configuration not stated): the IC10 was 18.5 µM.
